From PMC8482771 (ACS Omega, 2021)
Read-outs that look alike come from different tables or passages of the source.

Tests used:
Type in all cases: cell-based
h-P2X2R [1] = target: T1, h-P2X2R (Homo sapiens, UniProt Q9UBL9); assay: Ca2+ influx assay; conditions: for inhibition at 50 µM: 1321-N1, read-out: h-P2X2 % inhibition; for activity against h-P2X2 receptor (in words): SAR statement
T1 sequence (Q9UBL9 1-471): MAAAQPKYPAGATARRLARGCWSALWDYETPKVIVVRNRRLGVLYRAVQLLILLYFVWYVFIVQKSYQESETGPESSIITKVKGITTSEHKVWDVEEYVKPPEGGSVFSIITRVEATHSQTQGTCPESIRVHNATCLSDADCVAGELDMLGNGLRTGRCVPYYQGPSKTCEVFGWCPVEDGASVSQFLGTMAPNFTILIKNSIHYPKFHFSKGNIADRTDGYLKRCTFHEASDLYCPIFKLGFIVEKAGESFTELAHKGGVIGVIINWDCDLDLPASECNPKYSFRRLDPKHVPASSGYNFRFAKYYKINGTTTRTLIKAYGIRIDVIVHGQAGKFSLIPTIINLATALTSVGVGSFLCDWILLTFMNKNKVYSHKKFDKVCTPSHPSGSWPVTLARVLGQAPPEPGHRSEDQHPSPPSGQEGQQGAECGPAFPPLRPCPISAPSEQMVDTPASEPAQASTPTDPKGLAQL

h-P2X5 receptor = h-P2X5 receptor (Homo sapiens, UniProt Q93086); assay: Ca2+ influx assay; conditions: for inhibition at 50 µM: 1321-N1, read-out: h-P2X5 % inhibition
h-P2X7R [2] = target: T2, h-P2X7R (Homo sapiens, UniProt Q99572); assay: Ca2+ influx assay; conditions: for inhibition at 50 µM: 1321-N1, read-out: h-P2X7 % inhibition
T2 sequence (Q99572 1-595): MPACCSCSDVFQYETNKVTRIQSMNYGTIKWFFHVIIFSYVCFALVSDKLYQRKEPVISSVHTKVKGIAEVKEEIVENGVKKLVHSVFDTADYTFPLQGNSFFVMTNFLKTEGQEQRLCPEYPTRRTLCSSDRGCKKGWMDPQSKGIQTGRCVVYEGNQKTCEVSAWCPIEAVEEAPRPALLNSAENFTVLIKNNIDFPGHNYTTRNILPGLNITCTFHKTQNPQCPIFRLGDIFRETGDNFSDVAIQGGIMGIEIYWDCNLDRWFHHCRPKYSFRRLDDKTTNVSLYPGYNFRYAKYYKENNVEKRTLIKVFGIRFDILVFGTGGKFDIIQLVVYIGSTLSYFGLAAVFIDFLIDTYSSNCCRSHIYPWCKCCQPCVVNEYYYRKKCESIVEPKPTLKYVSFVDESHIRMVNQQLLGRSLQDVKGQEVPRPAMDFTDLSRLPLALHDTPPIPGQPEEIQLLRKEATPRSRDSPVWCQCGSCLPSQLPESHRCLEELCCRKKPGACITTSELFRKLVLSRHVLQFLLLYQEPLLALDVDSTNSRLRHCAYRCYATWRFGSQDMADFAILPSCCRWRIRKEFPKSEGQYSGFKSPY

h-P2X4R [3] = target: T3, h-P2X4R (Homo sapiens, UniProt Q99571); assay: Ca2+ influx assay; conditions: for inhibition at 50 µM: 1321-N1, read-out: h-P2X4 % inhibition
T3 sequence (Q99571 1-388): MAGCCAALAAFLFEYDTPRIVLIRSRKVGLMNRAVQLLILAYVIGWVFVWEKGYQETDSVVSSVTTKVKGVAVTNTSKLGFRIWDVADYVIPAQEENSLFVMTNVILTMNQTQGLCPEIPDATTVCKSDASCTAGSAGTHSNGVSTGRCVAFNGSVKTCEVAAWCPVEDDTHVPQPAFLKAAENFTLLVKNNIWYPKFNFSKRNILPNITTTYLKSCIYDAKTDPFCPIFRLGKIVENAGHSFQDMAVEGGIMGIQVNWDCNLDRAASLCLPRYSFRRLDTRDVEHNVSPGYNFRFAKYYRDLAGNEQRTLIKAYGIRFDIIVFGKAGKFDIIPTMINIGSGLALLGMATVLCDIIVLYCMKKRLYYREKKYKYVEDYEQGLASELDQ

Cytotoxicity assay = conditions: human, nontransfected 1321N1 astrocytoma cells
h-P2X7R [4] = target: T2, h-P2X7R
h-P2X2R [5] = target: T1, h-P2X2R; assay: Mode of inhibition: ATP dose-response curve without and with inhibitor, h-P2X2R; conditions: h-P2X2
h-P2X4R [6] = target: T3, h-P2X4R; assay: Mode of inhibition: ATP dose-response curve without and with inhibitor, h-P2X4R; conditions: h-P2X4R

Chain of h-P2X5 receptor (Q93086 whole entry): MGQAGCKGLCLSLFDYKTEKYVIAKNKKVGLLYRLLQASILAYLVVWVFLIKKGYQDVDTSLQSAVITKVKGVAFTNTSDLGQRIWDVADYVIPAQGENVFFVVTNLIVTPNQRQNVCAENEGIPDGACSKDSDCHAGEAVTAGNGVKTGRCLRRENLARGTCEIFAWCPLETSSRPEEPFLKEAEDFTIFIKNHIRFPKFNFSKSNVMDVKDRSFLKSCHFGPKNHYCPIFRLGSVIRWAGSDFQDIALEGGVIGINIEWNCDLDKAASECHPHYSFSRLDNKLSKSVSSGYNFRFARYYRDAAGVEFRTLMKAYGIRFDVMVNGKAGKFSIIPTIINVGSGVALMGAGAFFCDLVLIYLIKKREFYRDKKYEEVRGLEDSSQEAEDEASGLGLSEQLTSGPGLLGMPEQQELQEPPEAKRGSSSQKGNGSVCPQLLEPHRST

Compound	IC50 (h-P2X2R [1])	IC50 (h-P2X5 receptor)	inhibition at 50 µM (h-P2X5 receptor)	IC50 (h-P2X7R [2])	IC50 (h-P2X4R [3])	cytotoxicity at 24 h, 50 µM (Cytotoxicity assay)	EC50 (h-P2X7R [4]; read-out: EC50 of BzATP-induced response, BzATP without inhibitor)	inhibition at 50 µM (h-P2X2R [1])	activity against h-P2X2 receptor (in words) (h-P2X2R [1])	inhibition at 50 µM (h-P2X7R [2])	inhibition at 50 µM (h-P2X4R [3])	mechanism of receptor inhibition (h-P2X2R [5])	mechanism of receptor inhibition (h-P2X7R [4])	IC50 (h-P2X5 receptor; read-out: h-P2X5 IC50 ± SEM, Ca2+ influx, ATP at EC80, n = 3)	activity against h-P2X4 receptor (in words) (h-P2X4R [3]; SAR statement)	mechanism of receptor inhibition (h-P2X4R [6])
CC(=NNC(=O)c1ccccc1NS(C)(=O)=O)c1cc(C)cs1 [7c, N-(2-(2-(1-(4-Methylthiophen-2-yl)ethylidene)hydrazinecarbonyl)phenyl)methanesulfonamide]	1.59 ± 0.01 µM	> 50 µM	31%	8.94 ± 0.01 µM	3.89 ± 0.05 µM	5.98 ± 0.09%										
2′/3′-O-(4-benzoylbenzoyl)adenosine-5′-triphosphate [BzATP, reference compound]							5.5 µM									
CC(=NNC(=O)c1ccccc1NS(C)(=O)=O)c1ccc(Cl)cc1 [6d, N-(2-(2-(1-(4-Chlorophenyl)ethylidene)hydrazinecarbonyl)phenyl)methanesulfonamide]	> 50 µM	> 50 µM	42%	> 50 µM	> 50 µM	6.96 ± 0.8%		15%	loss of activity	48%	18%					
CC(=NNC(=O)c1ccccc1NS(C)(=O)=O)c1ccc([N+](=O)[O-])s1 [7g, N-(2-(2-(1-(5-Nitrothiophen-2-yl)ethylidene)hydrazinecarbonyl)phenyl)methanesulfonamide]	> 50 µM	> 50 µM	19%	6.8 ± 0.21 µM	2.44 ± 0.1 µM	23.8 ± 2.15%		26%								
CC(=NNC(=O)c1ccccc1NS(C)(=O)=O)c1ccc(Cl)s1 [7f, N-(2-(2-(1-(5-Chlorothiophen-2-yl)ethylidene)hydrazinecarbonyl)phenyl)methanesulfonamide]	> 50 µM	> 50 µM	0%	1.16 ± 0.03 µM	4.03 ± 0.07 µM	11.6 ± 0.26%		37%								
CC(=NNC(=O)c1ccccc1NS(C)(=O)=O)c1ccc(I)cc1 [6f, N-(2-(2-(1-(4-Iodophenyl)ethylidene)hydrazinecarbonyl)phenyl)methanesulfonamide]	3.52 ± 0.07 µM	> 50 µM	21%	10.01 ± 0.07 µM	> 50 µM	8.31 ± 0.33%					32%					
CC(=NNC(=O)c1ccccc1NS(C)(=O)=O)c1ccc(N)cc1 [6h, N-(2-(2-(1-(4-Aminophenyl)ethylidene)hydrazinecarbonyl)phenyl)methanesulfonamide]	0.32 ± 0.01 µM	> 50 µM	10%	1.1 ± 0.21 µM	> 50 µM	18.5 ± 1.22%					34%	negative allosteric modulator	negative allosteric modulator			
CC(=NNC(=O)c1ccccc1NS(C)(=O)=O)c1ccc(C)s1 [7d, N-(2-(2-(1-(5-Methylthiophen-2-yl)ethylidene)hydrazinecarbonyl)phenyl)methanesulfonamide]	2.03 ± 0.04 µM	> 50 µM	46%	4.53 ± 0.11 µM	3.21 ± 0.01 µM	1.57 ± 0.11%										
Cc1ccc(C(=O)Nc2ccc(S(=O)(=O)O)c3cc(S(=O)(=O)O)cc(S(=O)(=O)O)c23)cc1NC(=O)c1cccc(NC(=O)Nc2cccc(C(=O)Nc3cc(C(=O)Nc4ccc(S(=O)(=O)O)c5cc(S(=O)(=O)O)cc(S(=O)(=O)O)c45)ccc3C)c2)c1 [Suramin, reference compound]														16.1 ± 0.5 µM		
Nc1c(S(=O)(=O)O)cc(Nc2ccc(Nc3nc(Cl)nc(Nc4cccc(S(=O)(=O)O)c4)n3)c(S(=O)(=O)O)c2)c2c1C(=O)c1ccccc1C2=O [RB-2, Reactive Blue 2, reference compound]	0.89 ± 0.41 µM			2.79 ± 0.22 µM												
COc1ccc(C(C)=NNC(=O)c2ccccc2NS(C)(=O)=O)cc1 [6g, N-(2-(2-(1-(4-Methoxyphenyl)ethylidene)hydrazinecarbonyl)phenyl)methanesulfonamide]	3.48 ± 0.04 µM	> 50 µM	26%	2.09 ± 0.13 µM	> 50 µM	5.29 ± 0.72%					45%					
CC(=NNC(=O)c1ccccc1NS(C)(=O)=O)c1cccs1 [7a, N-(2-(2-(1-(Thiophen-2-yl)ethylidene)hydrazinecarbonyl)phenyl)methanesulfonamide]	1.57 ± 0.01 µM	> 50 µM	29%	> 50 µM	> 50 µM	11.6 ± 0.89%				45%	24%				inactive	
CC(=NNC(=O)c1ccccc1NS(C)(=O)=O)c1ccccc1F [6b, N-(2-(2-(1-(2-Fluorophenyl)ethylidene)hydrazinecarbonyl)phenyl)methanesulfonamide]	1.91 ± 0.03 µM	> 50 µM	16%		> 50 µM	11.4 ± 0.57%					40%					
CC(=NNC(=O)c1ccccc1NS(C)(=O)=O)c1ccc(Br)cc1 [6e, N-(2-(2-(1-(4-Bromophenyl)ethylidene)hydrazinecarbonyl)phenyl)methanesulfonamide]	3.22 ± 0.05 µM	> 50 µM	10%	> 50 µM	> 50 µM	16.8 ± 1.1%				34%	0%					
CC(=NNC(=O)c1ccccc1NS(C)(=O)=O)c1cccc(Br)c1 [6c, N-(2-(2-(1-(3-Bromophenyl)ethylidene)hydrazinecarbonyl)phenyl)methanesulfonamide]	> 50 µM	> 50 µM	0%	5.54 ± 0.05 µM	> 50 µM	15.1 ± 0.44%		0%	loss of activity		24%					
CC(=NNC(=O)c1ccccc1NS(C)(=O)=O)c1sccc1Cl [7e, N-(2-(2-(1-(3-Chlorothiophen-2-yl)ethylidene)hydrazinecarbonyl)phenyl)methanesulfonamide]	2.17 ± 0.02 µM	> 50 µM	27%	1.7 ± 0.09 µM	1.61 ± 0.04 µM	8.33 ± 0.8%										negative allosteric modulator
CC(=NNC(=O)c1ccccc1NS(C)(=O)=O)c1ccccc1 [6a, N-(2-(2-(1-Phenylethylidene)hydrazinecarbonyl)phenyl)methanesulfonamide]	> 50 µM	> 50 µM	20%	4.21 ± 0.01 µM	> 50 µM	14 ± 0.21%		20%			46%					
CC(=NNC(=O)c1ccccc1NS(C)(=O)=O)c1sccc1C [7b, N-(2-(2-(1-(3-Methylthiophen-2-yl)ethylidene)hydrazinecarbonyl)phenyl)methanesulfonamide]	1.8 ± 0.02 µM	> 50 µM	12%	> 50 µM	> 50 µM	10.7 ± 0.54%				47%	8%					
